Results reported in PMC12586182 (Frontiers in Oncology, 2025).

Tests used:
ACK = target: T1, ACK (Homo sapiens, UniProt Q07912); test: Kinase panel profiling at 1 µmol/L (mobility shift assay, Carna); type: biochemical; settings: 1 µmol/L of BTK inhibitor
T1 construct: purchased Carna Biosciences

FAK = target: T2, FAK (Homo sapiens, UniProt Q05397); test: as above; type: biochemical; settings: 1 µmol/L of BTK inhibitor
T2 construct: purchased Carna Biosciences

FLT1 = target: T3, FLT1 (Homo sapiens, UniProt P17948); test: as above; type: biochemical; settings: 1 µmol/L of BTK inhibitor
T3 construct: purchased Carna Biosciences

LYNb = target: T4, LYNb (Homo sapiens, UniProt P07948); test: as above; type: biochemical; settings: 1 µmol/L of BTK inhibitor
T4 construct: purchased Carna Biosciences

CDK2/CycE1 = target: T5, CDK2/CycE1 (Homo sapiens, UniProt P24941); test: as above; type: biochemical; settings: 1 µmol/L of BTK inhibitor
T5 construct: purchased Carna Biosciences

CHK1 = target: T6, CHK1 (Homo sapiens, UniProt O14757); test: as above; type: biochemical; settings: 1 µmol/L of BTK inhibitor
T6 construct: purchased Carna Biosciences
T6 sequence (O14757 1-476): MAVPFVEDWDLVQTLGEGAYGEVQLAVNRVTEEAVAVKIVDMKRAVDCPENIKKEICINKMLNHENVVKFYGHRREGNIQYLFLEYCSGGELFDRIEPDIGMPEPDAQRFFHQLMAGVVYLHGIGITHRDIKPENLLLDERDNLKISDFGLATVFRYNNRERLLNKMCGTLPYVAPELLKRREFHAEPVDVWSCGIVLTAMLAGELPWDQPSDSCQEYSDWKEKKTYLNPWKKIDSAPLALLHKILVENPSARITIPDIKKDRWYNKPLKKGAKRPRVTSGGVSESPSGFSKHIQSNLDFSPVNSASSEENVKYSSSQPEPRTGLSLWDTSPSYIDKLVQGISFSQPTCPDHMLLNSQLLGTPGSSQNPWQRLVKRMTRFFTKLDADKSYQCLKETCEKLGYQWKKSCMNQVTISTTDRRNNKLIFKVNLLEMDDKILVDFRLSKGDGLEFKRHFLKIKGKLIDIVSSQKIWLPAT

CRIK = target: T7, CRIK (Homo sapiens, UniProt O14578); test: as above; type: biochemical; settings: 1 µmol/L of BTK inhibitor
T7 construct: purchased Carna Biosciences
T7 sequence (O14578 whole entry): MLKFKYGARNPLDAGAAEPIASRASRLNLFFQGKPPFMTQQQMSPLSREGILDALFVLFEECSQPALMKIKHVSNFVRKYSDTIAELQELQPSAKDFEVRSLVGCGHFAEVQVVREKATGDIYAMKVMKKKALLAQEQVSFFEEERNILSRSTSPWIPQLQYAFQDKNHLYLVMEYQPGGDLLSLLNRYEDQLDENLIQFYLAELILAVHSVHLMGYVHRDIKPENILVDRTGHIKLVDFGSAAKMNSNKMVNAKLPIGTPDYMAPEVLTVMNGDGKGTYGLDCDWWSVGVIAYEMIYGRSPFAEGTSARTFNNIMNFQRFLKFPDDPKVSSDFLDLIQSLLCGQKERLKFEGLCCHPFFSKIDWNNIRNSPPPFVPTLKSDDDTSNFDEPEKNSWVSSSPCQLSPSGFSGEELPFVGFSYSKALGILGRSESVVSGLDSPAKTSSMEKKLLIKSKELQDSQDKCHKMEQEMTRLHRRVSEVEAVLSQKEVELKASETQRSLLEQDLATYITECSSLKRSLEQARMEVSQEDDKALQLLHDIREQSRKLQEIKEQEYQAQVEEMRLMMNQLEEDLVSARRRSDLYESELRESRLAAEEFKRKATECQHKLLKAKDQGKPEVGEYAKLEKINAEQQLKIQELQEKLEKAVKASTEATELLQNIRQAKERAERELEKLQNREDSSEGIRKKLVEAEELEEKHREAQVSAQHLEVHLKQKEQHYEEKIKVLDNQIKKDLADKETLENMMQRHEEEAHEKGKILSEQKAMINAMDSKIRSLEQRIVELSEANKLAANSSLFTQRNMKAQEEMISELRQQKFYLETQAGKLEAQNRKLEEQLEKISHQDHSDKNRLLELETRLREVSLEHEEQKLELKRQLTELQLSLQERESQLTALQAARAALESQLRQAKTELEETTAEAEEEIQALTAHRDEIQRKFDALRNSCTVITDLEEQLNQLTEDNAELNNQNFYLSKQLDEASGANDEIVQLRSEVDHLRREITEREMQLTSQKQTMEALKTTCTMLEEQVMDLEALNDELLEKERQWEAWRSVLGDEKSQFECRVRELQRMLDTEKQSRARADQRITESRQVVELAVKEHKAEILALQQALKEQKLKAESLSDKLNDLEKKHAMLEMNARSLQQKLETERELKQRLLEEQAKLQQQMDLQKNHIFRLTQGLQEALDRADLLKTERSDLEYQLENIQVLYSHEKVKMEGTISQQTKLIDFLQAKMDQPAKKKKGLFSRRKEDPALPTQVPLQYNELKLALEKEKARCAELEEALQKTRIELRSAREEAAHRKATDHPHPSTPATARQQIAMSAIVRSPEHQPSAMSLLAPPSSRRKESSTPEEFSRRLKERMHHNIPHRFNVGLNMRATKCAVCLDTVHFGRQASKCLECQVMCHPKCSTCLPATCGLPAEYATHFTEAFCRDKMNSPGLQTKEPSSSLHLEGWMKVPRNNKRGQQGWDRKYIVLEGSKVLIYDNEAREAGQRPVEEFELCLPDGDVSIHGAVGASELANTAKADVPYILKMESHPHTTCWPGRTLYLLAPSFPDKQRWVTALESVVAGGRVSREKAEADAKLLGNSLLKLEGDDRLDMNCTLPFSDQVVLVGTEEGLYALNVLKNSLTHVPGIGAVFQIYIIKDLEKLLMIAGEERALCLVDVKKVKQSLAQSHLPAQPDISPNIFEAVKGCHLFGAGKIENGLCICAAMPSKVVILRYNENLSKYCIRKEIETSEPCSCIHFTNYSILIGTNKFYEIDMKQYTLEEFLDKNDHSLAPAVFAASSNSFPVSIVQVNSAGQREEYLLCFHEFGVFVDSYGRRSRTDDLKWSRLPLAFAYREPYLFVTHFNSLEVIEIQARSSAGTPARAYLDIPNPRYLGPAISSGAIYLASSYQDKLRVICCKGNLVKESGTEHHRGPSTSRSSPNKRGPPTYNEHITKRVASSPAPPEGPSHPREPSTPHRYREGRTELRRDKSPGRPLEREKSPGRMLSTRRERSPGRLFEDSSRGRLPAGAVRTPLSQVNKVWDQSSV

PDK1 = target: T8, PDK1 (Homo sapiens, UniProt O15530); test: as above; type: biochemical; settings: 1 µmol/L of BTK inhibitor
T8 construct: purchased Carna Biosciences
T8 sequence (O15530 1-556): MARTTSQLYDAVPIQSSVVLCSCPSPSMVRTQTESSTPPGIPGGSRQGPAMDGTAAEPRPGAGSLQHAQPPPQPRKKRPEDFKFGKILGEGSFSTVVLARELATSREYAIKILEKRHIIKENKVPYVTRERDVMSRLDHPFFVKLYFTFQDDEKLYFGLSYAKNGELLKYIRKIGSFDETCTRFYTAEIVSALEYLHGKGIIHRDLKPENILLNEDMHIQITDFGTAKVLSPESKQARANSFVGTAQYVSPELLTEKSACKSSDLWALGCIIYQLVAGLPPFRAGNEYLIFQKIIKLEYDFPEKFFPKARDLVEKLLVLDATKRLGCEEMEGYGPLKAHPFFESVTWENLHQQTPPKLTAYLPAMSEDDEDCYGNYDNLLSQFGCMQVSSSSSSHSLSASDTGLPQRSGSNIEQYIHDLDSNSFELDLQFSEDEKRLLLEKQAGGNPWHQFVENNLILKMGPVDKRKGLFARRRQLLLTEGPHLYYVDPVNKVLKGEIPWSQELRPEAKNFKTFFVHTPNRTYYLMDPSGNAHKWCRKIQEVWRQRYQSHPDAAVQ

PLK1 = target: T9, PLK1 (Homo sapiens, UniProt P53350); test: as above; type: biochemical; settings: 1 µmol/L of BTK inhibitor
T9 construct: purchased Carna Biosciences
T9 sequence (P53350 whole entry): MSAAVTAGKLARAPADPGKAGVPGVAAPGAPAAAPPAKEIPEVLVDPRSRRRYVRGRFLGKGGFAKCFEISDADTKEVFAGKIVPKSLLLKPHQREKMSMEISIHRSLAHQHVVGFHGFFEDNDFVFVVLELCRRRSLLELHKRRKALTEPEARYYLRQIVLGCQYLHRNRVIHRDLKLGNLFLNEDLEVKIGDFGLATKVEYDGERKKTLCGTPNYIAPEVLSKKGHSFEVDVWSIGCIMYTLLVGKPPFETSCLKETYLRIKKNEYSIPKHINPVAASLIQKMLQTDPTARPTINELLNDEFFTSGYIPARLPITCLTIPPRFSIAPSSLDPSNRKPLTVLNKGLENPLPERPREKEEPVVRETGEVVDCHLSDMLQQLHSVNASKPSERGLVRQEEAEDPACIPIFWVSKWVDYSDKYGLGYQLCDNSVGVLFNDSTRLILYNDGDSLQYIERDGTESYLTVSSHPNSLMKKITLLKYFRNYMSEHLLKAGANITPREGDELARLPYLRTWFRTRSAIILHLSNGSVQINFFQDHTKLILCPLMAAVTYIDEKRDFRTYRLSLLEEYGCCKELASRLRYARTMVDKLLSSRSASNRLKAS

TSSK2 = target: T10, TSSK2 (Homo sapiens, UniProt Q96PF2); test: as above; type: biochemical; settings: 1 µmol/L of BTK inhibitor
T10 construct: purchased Carna Biosciences
T10 sequence (Q96PF2 1-358): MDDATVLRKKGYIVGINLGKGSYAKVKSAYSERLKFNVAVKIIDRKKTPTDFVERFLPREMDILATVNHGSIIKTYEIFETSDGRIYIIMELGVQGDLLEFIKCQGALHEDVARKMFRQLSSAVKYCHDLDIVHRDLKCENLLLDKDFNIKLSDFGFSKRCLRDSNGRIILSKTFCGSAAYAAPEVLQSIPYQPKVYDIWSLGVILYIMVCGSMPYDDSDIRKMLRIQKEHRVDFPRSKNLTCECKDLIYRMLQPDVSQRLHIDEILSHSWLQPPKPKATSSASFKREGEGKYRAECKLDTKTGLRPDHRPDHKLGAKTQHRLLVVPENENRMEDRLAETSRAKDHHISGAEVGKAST

WNK1 = target: T11, WNK1 (Homo sapiens, UniProt Q9H4A3); test: as above; type: biochemical; settings: 1 µmol/L of BTK inhibitor
T11 construct: purchased Carna Biosciences

WNK2 = target: T12, WNK2 (Homo sapiens, UniProt Q9Y3S1); test: as above; type: biochemical; settings: 1 µmol/L of BTK inhibitor
T12 construct: purchased Carna Biosciences
T12 sequence (Q9Y3S1 whole entry): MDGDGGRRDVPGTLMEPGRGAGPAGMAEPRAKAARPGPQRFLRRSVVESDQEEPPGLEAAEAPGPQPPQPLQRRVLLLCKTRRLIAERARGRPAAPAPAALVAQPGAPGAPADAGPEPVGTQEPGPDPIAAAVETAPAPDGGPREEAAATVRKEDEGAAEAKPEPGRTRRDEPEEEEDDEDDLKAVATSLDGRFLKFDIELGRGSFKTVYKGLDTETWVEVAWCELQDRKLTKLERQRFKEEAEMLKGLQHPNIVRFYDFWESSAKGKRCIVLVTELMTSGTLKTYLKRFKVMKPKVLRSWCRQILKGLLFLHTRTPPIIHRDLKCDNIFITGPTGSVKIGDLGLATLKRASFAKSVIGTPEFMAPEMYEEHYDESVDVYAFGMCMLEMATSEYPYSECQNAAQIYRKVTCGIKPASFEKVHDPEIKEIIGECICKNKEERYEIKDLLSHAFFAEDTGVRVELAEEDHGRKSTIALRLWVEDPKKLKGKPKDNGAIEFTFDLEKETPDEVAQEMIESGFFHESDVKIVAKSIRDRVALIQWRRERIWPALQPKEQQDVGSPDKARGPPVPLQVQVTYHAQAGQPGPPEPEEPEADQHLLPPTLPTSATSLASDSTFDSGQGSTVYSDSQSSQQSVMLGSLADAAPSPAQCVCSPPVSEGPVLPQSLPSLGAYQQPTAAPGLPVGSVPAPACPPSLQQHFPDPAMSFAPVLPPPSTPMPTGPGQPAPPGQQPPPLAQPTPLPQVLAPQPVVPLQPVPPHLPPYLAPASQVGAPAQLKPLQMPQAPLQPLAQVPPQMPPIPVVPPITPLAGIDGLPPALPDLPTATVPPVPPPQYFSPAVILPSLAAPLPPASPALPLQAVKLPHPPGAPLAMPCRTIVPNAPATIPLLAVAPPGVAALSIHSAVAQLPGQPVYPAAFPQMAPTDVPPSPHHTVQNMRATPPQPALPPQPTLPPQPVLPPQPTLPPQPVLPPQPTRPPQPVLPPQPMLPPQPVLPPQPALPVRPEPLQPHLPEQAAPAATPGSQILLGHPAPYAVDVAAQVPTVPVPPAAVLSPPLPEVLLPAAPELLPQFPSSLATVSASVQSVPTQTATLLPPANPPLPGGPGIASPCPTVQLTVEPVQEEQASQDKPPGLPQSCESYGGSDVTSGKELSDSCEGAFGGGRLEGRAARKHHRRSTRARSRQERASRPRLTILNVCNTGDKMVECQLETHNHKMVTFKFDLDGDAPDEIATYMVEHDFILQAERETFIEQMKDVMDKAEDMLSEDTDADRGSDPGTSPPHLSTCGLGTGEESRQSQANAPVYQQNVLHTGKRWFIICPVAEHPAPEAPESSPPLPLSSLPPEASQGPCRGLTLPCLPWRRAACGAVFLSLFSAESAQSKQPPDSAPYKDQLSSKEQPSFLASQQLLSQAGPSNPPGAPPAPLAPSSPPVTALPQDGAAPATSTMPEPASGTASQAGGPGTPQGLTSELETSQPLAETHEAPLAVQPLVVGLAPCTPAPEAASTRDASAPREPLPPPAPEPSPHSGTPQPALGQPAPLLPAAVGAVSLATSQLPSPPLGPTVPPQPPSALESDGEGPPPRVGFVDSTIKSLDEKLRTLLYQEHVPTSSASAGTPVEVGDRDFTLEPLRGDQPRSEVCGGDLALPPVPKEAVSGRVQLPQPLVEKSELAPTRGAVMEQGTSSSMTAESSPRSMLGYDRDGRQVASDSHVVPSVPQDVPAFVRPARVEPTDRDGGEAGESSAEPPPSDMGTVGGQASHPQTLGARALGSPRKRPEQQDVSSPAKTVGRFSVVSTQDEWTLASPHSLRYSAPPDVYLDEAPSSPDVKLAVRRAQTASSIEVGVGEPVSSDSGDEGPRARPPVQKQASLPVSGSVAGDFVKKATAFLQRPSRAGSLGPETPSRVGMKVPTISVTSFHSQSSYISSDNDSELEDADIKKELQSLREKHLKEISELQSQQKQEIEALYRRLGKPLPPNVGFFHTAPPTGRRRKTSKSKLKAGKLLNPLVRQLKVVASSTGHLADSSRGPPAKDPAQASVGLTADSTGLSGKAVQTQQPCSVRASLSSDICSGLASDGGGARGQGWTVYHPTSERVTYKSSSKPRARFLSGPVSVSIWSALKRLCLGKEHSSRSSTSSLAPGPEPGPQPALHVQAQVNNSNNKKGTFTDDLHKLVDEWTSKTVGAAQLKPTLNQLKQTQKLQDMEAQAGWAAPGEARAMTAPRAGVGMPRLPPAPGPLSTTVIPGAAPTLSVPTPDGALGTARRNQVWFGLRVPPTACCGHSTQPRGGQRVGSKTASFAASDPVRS

FGFR2 = FGFR2 (Homo sapiens, UniProt P21802); test: Kinase enzyme activity assay (mobility shift assay, Carna); settings: for Percentage inhibition of kinase enzyme activity: FGFR2, 1 µmol/L of BTK inhibitor
CSK = CSK (Homo sapiens, UniProt P41240); test: Kinase panel profiling at 1 µmol/L (mobility shift assay, Carna); settings: for Percentage inhibition of kinase enzyme activity: CSK, 1 µmol/L of BTK inhibitor

Row | Compound | Percentage inhibition of kinase enzyme activity (ACK) [%] | Percentage inhibition of kinase enzyme activity (FAK) [%] | Percentage inhibition of kinase enzyme activity (FLT1) [%] | Percentage inhibition of kinase enzyme activity (LYNb) [%] | Percentage inhibition of kinase enzyme activity (CDK2/CycE1) [%] | Percentage inhibition of kinase enzyme activity (CHK1) [%] | Percentage inhibition of kinase enzyme activity (CRIK) [%] | Percentage inhibition of kinase enzyme activity (PDK1) [%] | Percentage inhibition of kinase enzyme activity (PLK1) [%] | Percentage inhibition of kinase enzyme activity (TSSK2) [%] | Percentage inhibition of kinase enzyme activity (WNK1) [%] | Percentage inhibition of kinase enzyme activity (WNK2) [%] | Percentage inhibition of kinase enzyme activity (FGFR2) [%] | Percentage inhibition of kinase enzyme activity (CSK) [%] | IC50 (FGFR2) [nM] | inhibition at 1 µM (CSK; read-out: Inhibition of CSK) [%]
1 | CC#CC(=O)N1CCC[C@H]1c1nc(-c2ccc(C(=O)Nc3ccccn3)cc2)c2c(N)nccn12 [acalabrutinib] | 14.06 | -1.39 | -1.14 | -1.97 | -4.82 | -6.98 | -5.14 | -1.47 | -2.57 | -3.11 | 5.36 | 0.79 | -6.22 | 6.97 |  | 
2 | C=CC(=O)N1CCC[C@@H](n2nc(-c3ccc(Oc4ccccc4)cc3)c3c(N)ncnc32)C1 [ibrutinib] | 72.74 | 5.04 | 72.57 | 100.13 | -8.27 | 10.13 | -0.17 | -2.01 | -2.28 | -3.91 | 2.30 | 5.67 | 81.29 |  |  | 
3 | O=C(c1ccc(Oc2ccccc2)cc1Cl)c1c[nH]c2ncnc(N[C@@H]3CC[C@@H](CO)OC3)c12 [nemtabrutinib] | 98.62 | 100.03 | 87.14 | 66.12 | -17.66 | 12.30 | -5.26 | 2.54 | 1.28 | -0.84 | 8.78 | 47.36 | 45.29 | 98.66 | 34 | 
4 | COc1ccc(F)cc1C(=O)NCc1ccc(-c2nn([C@@H](C)C(F)(F)F)c(N)c2C(N)=O)cc1 [pirtobrutinib] | 13.05 | 0.91 | 4.85 | 26.06 | -41.48 | 8.67 | -3.77 | -1.19 | 1.53 | -11.71 | -5.02 | 11.58 | 12.14 | 79.14 |  | > 75
5 | C=CC(=O)N1CCC([C@@H]2CCNc3c(C(N)=O)c(-c4ccc(Oc5ccccc5)cc4)nn32)CC1 [zanubrutinib] |  | 0.0146 | 22.02 |  |  |  |  |  |  |  |  |  | 1.70 |  |  | 
